Measurements as given in patent US8889684B2, “Azaindolylphenyl sulfonamides as serine/threonine kinase inhibitors” (Boehringer Ingelheim International GmbH, priority 2011, dated 2014).

target: B-Raf (V600E)-kinase (Homo sapiens (Human), UniProt P15056, V600E); experiment: Kinase test B-Raf (V600E); assay type: biochemical; conditions: 250 μM ATP, biotinylated MEK1 substrate
Protocol: Kinase test B-Raf (V600E)
In a dilution series 10 μL/well of test substance solution are placed in a multiwell plate. The dilution series is selected so that generally a range of concentrations of 2 μM to 0.119 nM or 0.017 nM is covered. If necessary the initial concentration of 2 μM is changed to 50 μM, 10 μM, 0.4 μM or 0.2857 μM and further dilution is carried out accordingly. The final concentration of DMSO is 5%. 10 μL/well of the B-Raf (V600E)-kinase solution are pipetted in (containing 0.5 ng B-Raf (V600E)-kinase, e.g. from Upstate) in 20 mM Tris-HCl pH 7.5, 0.1 mM EDTA, 0.1 mM EGTA, 0.286 mM sodium orthovanadate, 10% glycerol, 1 mg/mL bovine serum albumin, 1 mM dithiothreitol) and the mixture is incubated for 1 h at RT with shaking. The kinase reaction is started by the addition of 20 μL/well ATP solution [final concentration: 250 μM ATP, 30 mM Tris-HCl pH 7.5, 0.02% Brij, 0.2 mM sodium orthovanadate, 10 mM magnesium acetate, 0.1 mM EGTA, phosphatase cocktail (Sigma, #P2850, dilution recommended by the manufacturer)] and 10 μL/well MEK1 solution [containing 50 ng biotinylated MEK1 (prepared from purified MEK1 according to standard procedure, e.g. with EZ-Link Sulpho-NHS-LC-Biotin reagent, Pierce, #21335)] and carried out for 60 min at RT with constant shaking. The reaction is stopped by the addition of 12 μL/well of a 100 mM EDTA solution and incubation is continued for a further 5 min. 55 μL/well of the reaction solution are transferred into a streptavidin-coated plate (e.g. Streptawell HighBond, Roche, #11989685001) and gently shaken for 1 h at RT in order to bind biotinylated MEK1 to the plate. After elimination of the liquid the plate is washed five times with 200 μL/well of 1×PBS and 100 μL/well solution of primary antibody plus europium-labelled secondary antibody [Anti Phospho-MEK (Ser217/221), Cell Signaling, #9121 and Eu—N1 labelled goat-anti-rabbit antibody, Perkin Elmer, #AD0105] is added, the primary antibody is diluted 1:2000 and the secondary antibody is diluted to 0.4-0.5 μg/mL in Delfia Assay Buffer (Perkin Elmer, #1244-111). After 1 h shaking at RT the solution is poured away and washed five times with 200 μL/well Delfia Wash Buffer (Perkin Elmer, #4010-0010/#1244-114). After the addition of 200 μL/well Enhancement Solution (Perkin Elmer, #4001-0010/#1244-105) the mixture is shaken for 10 min at RT and then measured in a Wallac Victor using the program “Delfia Time Resolved Fluorescence (Europium)”. IC50 values are obtained from these dosage-activity curves using a software program (GraphPadPrizm).

Chain of B-Raf (V600E)-kinase (P15056 whole entry V600E): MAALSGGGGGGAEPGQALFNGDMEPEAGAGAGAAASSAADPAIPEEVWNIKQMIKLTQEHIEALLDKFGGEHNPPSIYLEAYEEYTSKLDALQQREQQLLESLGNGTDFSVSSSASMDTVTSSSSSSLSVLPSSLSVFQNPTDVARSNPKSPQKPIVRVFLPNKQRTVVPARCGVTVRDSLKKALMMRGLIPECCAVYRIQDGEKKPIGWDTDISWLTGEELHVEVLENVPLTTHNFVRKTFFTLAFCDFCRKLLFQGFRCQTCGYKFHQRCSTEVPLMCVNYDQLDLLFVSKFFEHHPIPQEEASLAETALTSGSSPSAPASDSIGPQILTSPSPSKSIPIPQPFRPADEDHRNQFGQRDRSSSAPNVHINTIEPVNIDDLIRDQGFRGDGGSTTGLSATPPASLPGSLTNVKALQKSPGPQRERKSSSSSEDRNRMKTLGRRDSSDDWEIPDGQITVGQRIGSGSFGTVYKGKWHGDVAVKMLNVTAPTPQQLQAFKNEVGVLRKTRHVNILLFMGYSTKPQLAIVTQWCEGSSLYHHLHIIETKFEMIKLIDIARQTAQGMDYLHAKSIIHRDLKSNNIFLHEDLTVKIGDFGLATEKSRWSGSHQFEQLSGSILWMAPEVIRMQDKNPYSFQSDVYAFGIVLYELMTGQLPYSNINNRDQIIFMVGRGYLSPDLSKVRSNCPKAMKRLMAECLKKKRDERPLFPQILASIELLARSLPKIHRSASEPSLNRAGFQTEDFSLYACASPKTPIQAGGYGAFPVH

| Compound | IC50 [nM] |
| --- | --- |
| CCCS(=O)(=O)Nc1ccc(F)c(-n2cc(-c3cncc(OC)c3)c3nc(N4CCN(C)CC4)ccc32)c1F [I-3] | 297 |
| CCCS(=O)(=O)Nc1ccc(F)c(-n2cc(-c3cncc(OC)c3)c3nc(N4CCN(CCOC)CC4)ccc32)c1F [I-4] | 125 |
| CCCS(=O)(=O)Nc1ccc(F)c(-n2cc(-c3cncc(OC)c3)c3nc(N(C)C4CCN(C)CC4)cnc32)c1F [I-5] | 16 |
| CCCS(=O)(=O)Nc1ccc(F)c(-n2cc(-c3cncc(OC)c3)c3nc(N4CCN(C)CC4)ncc32)c1F [I-6] | 1610 |
| CCCS(=O)(=O)Nc1ccc(F)c(-n2cc(-c3cncnc3)c3nc(N(C)C4CCN(C)CC4)ncc32)c1F [I-8] | 4 |
| CCCS(=O)(=O)Nc1ccc(F)c(-n2cc(-c3cncnc3)c3nc(N(C)C4CCN(CC)CC4)ncc32)c1F [I-9] | 16 |
| CCCS(=O)(=O)Nc1ccc(F)c(-n2cc(-c3cncnc3)c3nc(N(C)C4CCNCC4)ncc32)c1F [I-12] | 41 |

Other lines, results leading:

| IC50 [nM] | Compound |
| --- | --- |
| 7 | CCCS(=O)(=O)Nc1ccc(F)c(-n2cc(-c3cncc(OC)c3)c3nc(N(C)C4CCN(C)CC4)ncc32)c1F [I-7] |
| 29 | CCCS(=O)(=O)Nc1ccc(F)c(-n2cc(-c3cncnc3)c3nc(N(C)C4CCN(C5CC5)CC4)ncc32)c1F [I-10] |
| 42 | CCCS(=O)(=O)Nc1ccc(F)c(-n2cc(-c3cncnc3)c3nc(N(C)C4CCN(CCOC)CC4)ncc32)c1F [I-11] |

test system: SK-MEL-28 cells; experiment: Inhibition of the proliferation of cultivated human melanoma cells (SK-MEL-28, B-RAF V600E mutated); assay type: cell-based; conditions: 72 h incubation, AlamarBlue
Protocol: Measurement of the Inhibition of the Proliferation of Cultivated Human Melanoma cells (SK-MEL-28, B-RAF^V600E Mutated)
SK-MEL-28 cells are placed in 96-well flat bottomed dishes in a density of 2500 cells per well in supplemented MEM medium (see above) and incubated overnight in an incubator (at 37° C. and 5% CO2). […] After an incubation period of a further 72 h 20 μL AlamarBlue reagent (Serotec Ltd., #BUF012B) are added to each well and the cells are incubated for a further 3-6 h. The colour change of the AlamarBlue reagent is determined in a fluorescence spectrophotometer (e.g. Gemini, Molecular Devices). EC50 values are calculated using a software program (GraphPadPrizm).

| Compound | EC50 [nM] |
| --- | --- |
| CCCS(=O)(=O)Nc1ccc(F)c(-n2cc(-c3cncc(OC)c3)c3nc(N4CCN(C)CC4)ccc32)c1F [I-3] | 114 |
| CCCS(=O)(=O)Nc1ccc(F)c(-n2cc(-c3cncc(OC)c3)c3nc(N4CCN(CCOC)CC4)ccc32)c1F [I-4] | 63 |
| CCCS(=O)(=O)Nc1ccc(F)c(-n2cc(-c3cncc(OC)c3)c3nc(N(C)C4CCN(C)CC4)cnc32)c1F [I-5] | 41 |
| CCCS(=O)(=O)Nc1ccc(F)c(-n2cc(-c3cncc(OC)c3)c3nc(N4CCN(C)CC4)ncc32)c1F [I-6] | 121 |
| CCCS(=O)(=O)Nc1ccc(F)c(-n2cc(-c3cncnc3)c3nc(N(C)C4CCN(C)CC4)ncc32)c1F [I-8] | 6 |
| CCCS(=O)(=O)Nc1ccc(F)c(-n2cc(-c3cncnc3)c3nc(N(C)C4CCN(CC)CC4)ncc32)c1F [I-9] | 11 |
| CCCS(=O)(=O)Nc1ccc(F)c(-n2cc(-c3cncnc3)c3nc(N(C)C4CCNCC4)ncc32)c1F [I-12] | 60 |
| CCCS(=O)(=O)Nc1ccc(F)c(-n2cc(-c3cncnc3)c3nc(N(C)C4CCN(C(=O)OC(C)(C)C)CC4)ccc32)c1F [I-13] | 86 |
| CCCS(=O)(=O)Nc1ccc(F)c(-n2cc(-c3cncnc3)c3nc(N(C)C4CCNCC4)ccc32)c1F [I-14] | 6 |
| O=S(=O)(CC1CCCO1)Nc1ccc(F)c(-n2cc(-c3cncnc3)c3nc(N4CCNCC4)ccc32)c1F (stereo not drawn) [I-15] | 181 |
| CCN1CCN(c2ccc3c(n2)c(-c2cncnc2)cn3-c2c(F)ccc(NS(=O)(=O)CC3CCCO3)c2F)CC1 (stereo not drawn) [I-16] | 491 |
| CN1CCN(c2ccc3c(n2)c(-c2cncnc2)cn3-c2c(F)ccc(NS(=O)(=O)CC3CCCO3)c2F)CC1 (stereo not drawn) [I-17] | 386 |
| CN(c1ncc2c(n1)c(-c1cncnc1)cn2-c1c(F)ccc(NS(=O)(=O)CC2CC2)c1F)C1CCNCC1 [I-19] | 110 |
| CCCS(=O)(=O)Nc1ccc(F)c(-n2cc(-c3cncnc3)c3nc(N4CCN(CC)CC4)ncc32)c1F [I-21] | 89 |
| CCCS(=O)(=O)Nc1ccc(F)c(-n2cc(-c3cncnc3)c3nc(N4CCN(CC)CC4)ccc32)c1F [I-23] | 40 |
| CCCS(=O)(=O)Nc1ccc(F)c(-n2cc(-c3cncnc3)c3nc(N4CCNCC4)ncc32)c1F [I-26] | 73 |
| CCCS(=O)(=O)Nc1ccc(F)c(-n2cc(-c3cncnc3)c3nc(N(C)C4CCN(C)CC4)ccc32)c1F [I-30] | 2 |
| CN1CCC(N(C)c2ccc3c(n2)c(-c2cncnc2)cn3-c2c(F)ccc(NS(=O)(=O)C3CC3)c2F)CC1 [I-32] | 2 |
| CCCS(=O)(=O)Nc1ccc(F)c(-n2cc(-c3cncnc3)c3nc(N4CCNCC4)ccc32)c1F [I-33] | 14 |
| [2H]C([2H])([2H])N(c1ccc2c(n1)c(-c1cncnc1)cn2-c1c(F)ccc(NS(=O)(=O)CCC)c1F)C1CCN(CC)CC1 [I-41] | 1 |
| CCCS(=O)(=O)Nc1ccc(F)c(-n2cc(-c3cncnc3)c3nc(N(C)C4CCN(CC)CC4)ccc32)c1F [I-42] | 0.84 |
| [2H]C([2H])([2H])N(c1ccc2c(n1)c(-c1cncnc1)cn2-c1c(F)ccc(NS(=O)(=O)CCC)c1F)C1CCN(C([2H])([2H])C([2H])([2H])[2H])CC1 [I-44] | 1 |
| [2H]C([2H])([2H])C([2H])([2H])N1CCC(N(C)c2ccc3c(n2)c(-c2cncnc2)cn3-c2c(F)ccc(NS(=O)(=O)CCC)c2F)CC1 [I-46] | 3 |
| CCCS(=O)(=O)Nc1ccc(F)c(-n2cc(-c3cncnc3)c3nc(N(C)C4CCN(CC)CC4)ccc32)c1Cl [I-47] | 2 |

Other lines, results leading:

| EC50 [nM] | Compound |
| --- | --- |
| 40 | CCCS(=O)(=O)Nc1ccc(F)c(-n2cc(-c3cncc(OC)c3)c3nc(N(C)C4CCN(C)CC4)ncc32)c1F [I-7] |
| 21 | CCCS(=O)(=O)Nc1ccc(F)c(-n2cc(-c3cncnc3)c3nc(N(C)C4CCN(CCOC)CC4)ncc32)c1F [I-11] |
| 90 | CCN1CCN(c2ccc3c(n2)c(-c2cncnc2)cn3-c2c(F)ccc(NS(=O)(=O)CC3CC3)c2F)CC1 [I-18] |
| 72 | CN1CCN(c2ccc3c(n2)c(-c2cncnc2)cn3-c2c(F)ccc(NS(=O)(=O)CC3CC3)c2F)CC1 [I-20] |
| 112 | CN(c1ccc2c(n1)c(-c1cncnc1)cn2-c1c(F)ccc(NS(=O)(=O)C2CC2)c1F)C1CCN(C(=O)OC(C)(C)C)CC1 [I-22] |
| 68 | CCCS(=O)(=O)Nc1ccc(F)c(-n2cc(-c3cncnc3)c3nc(N4CCN(C)CC4)ncc32)c1F [I-24] |
| 27 | O=S(=O)(CC1CC1)Nc1ccc(F)c(-n2cc(-c3cncnc3)c3nc(N4CCNCC4)ccc32)c1F [I-25] |
| 54 | CCCS(=O)(=O)Nc1ccc(F)c(-n2cc(-c3cncnc3)c3nc(N4CCN(CC5CC5)CC4)ncc32)c1F [I-27] |
| 7 | CN(c1ncc2c(n1)c(-c1cncnc1)cn2-c1c(F)ccc(NS(=O)(=O)CC2CC2)c1F)C1CCN(CC2CC2)CC1 [I-28] |
| 41 | CCCS(=O)(=O)Nc1ccc(F)c(-n2cc(-c3cncnc3)c3nc(N4CCN(C5CC5)CC4)ccc32)c1F [I-29] |
| 31 | CCCS(=O)(=O)Nc1ccc(F)c(-n2cc(-c3cncnc3)c3nc(N4CCN(CC5CC5)CC4)ccc32)c1F [I-31] |
| 2 | CCCN1CCC(N(C)c2ccc3c(n2)c(-c2cncnc2)cn3-c2c(F)ccc(NS(=O)(=O)CCC)c2F)CC1 [I-34] |
| 6 | CCCS(=O)(=O)Nc1ccc(F)c(-n2cc(-c3cncnc3)c3nc(N(C)C4CCN(CCOC)CC4)c(F)cc32)c1F [I-35] |
| 7 | CCCS(=O)(=O)Nc1ccc(F)c(-n2cc(-c3cncnc3)c3nc(N(C)C4CCN(CC(C)(C)O)CC4)c(F)cc32)c1F [I-36] |
| 2 | CCCS(=O)(=O)Nc1ccc(F)c(-n2cc(-c3cncnc3)c3nc(N(C)C4CCN(CC5CC5)CC4)ccc32)c1F [I-37] |
| 5 | CCCS(=O)(=O)Nc1ccc(F)c(-n2cc(-c3cncnc3)c3nc(N(C)C4CCN(C5COC5)CC4)ncc32)c1F [I-38] |
| 0.47 | CN(c1ncc2c(n1)c(-c1cncnc1)cn2-c1c(F)ccc(NS(=O)(=O)c2ccoc2)c1F)C1CCN(CC2CC2)CC1 [I-39] |
| 3 | CCCS(=O)(=O)Nc1ccc(F)c(-n2cc(-c3cncnc3)c3nc(N(C)C4CCN(CC)CC4)c(F)cc32)c1F [I-40] |
| 5 | CCCS(=O)(=O)Nc1ccc(F)c(-n2cc(-c3cncnc3)c3nc(N(C)C4CCN(CC5CC5)CC4)ncc32)c1F [I-43] |
| 5 | CCCS(=O)(=O)Nc1ccc(F)c(-n2cc(-c3cncnc3)c3nc(N(C)C4CCN(CC(C)(C)O)CC4)ccc32)c1F [I-45] |
